Literature values, collected in article PMC7036871, “Identification and Characterization of pantocin wh-1, a Novel Cyclic Polypeptide Produced by Pantoea dispersa W18” (Molecules, 2020).
Converted amounts (≈) assume the structure as drawn. Read-outs that look alike come from different tables or passages of the source.

Test system: M. tuberculosis
Set-up: method as in 8 sources, ref [15],[16] = [15]; PMID 24684906; doi:10.1016/j.chembiol.2014.01.014; 15. Gavrish E. Sit C.S. Cao S. Kandror O. Spoering A. Peoples A. Ling L. Fetterman A. Hughes D. Bissell A. Lassomycin, a ribosomally synthesized cyclic peptide, kills mycobacterium tuberculosis by tar || [16]; PMID 24766844; doi:10.1016/j.chembiol.2014.04.002; 16. Parish T. Targeting mycobacterial proteolytic complexes with natural products Chem. Biol. 2014 21 437 438 10.1016/j.chembiol.2014.04.002 24766844 ||| ref [17] = [17]; PMID 25421483; doi:10.1128/AAC.04054-14; 17. Gao W. Kim J.Y. Anderson J.R. Akopian T. Hong S. Jin Y.Y. Kandror O. Kim J.W. Lee I.A. Lee S.Y. The cyclic peptide ecumicin targeting ClpC1 is active against Mycobacterium tuberculosis in vivo Ant ||| ref [18],[19] = [18]; PMID 21969594; doi:10.1073/pnas.1110385108; 18. Sass P. Josten M. Famulla K. Schiffer G. Sahl H.G. Hamoen L. Brotz-Oesterhelt H. Antibiotic acyldepsipeptides activate ClpP peptidase to degrade the cell division protein FtsZ Proc. Natl. Acad. Sc || [19]; PMID 22123255; doi:10.1128/JB.06142-11; 19. Ollinger J. O’Malley T. Kesicki E.A. Odingo J. Parish T. Validation of the Essential ClpP Protease in Mycobacterium tuberculosis as a Novel Drug Target J. Bacteriol. 2012 194 663 668 10.1128/JB.06 ||| ref [20] = [20]; PMID 22987724; doi:10.1002/emmm.201201689; 20. Hartkoorn R.C. Sala C. Neres J. Pojer F. Magnet S. Mukherjee R. Uplekar S. Boy-Rottger S. Altmann K.H. Cole S.T. Towards a new tuberculosis drug: Pyridomycin-nature’s isoniazid Embo. Mol. Med. 201 ||| ref [21] = [21]; PMID 10747933; doi:10.1074/jbc.M000569200; 21. Kremer L. Douglas J.D. Baulard A.R. Morehouse C. Guy M.R. Alland D. Dover L.G. Lakey J.H. Jacobs W.R. Brennan P.J. Thiolactomycin and related analogues as novel anti-mycobacterial agents targeting ||| ...
Conditions: anti-TB, cited from earlier work

## C=C/C(C)=C/[C@@]1(C)SC(=O)C(C)=C1O [Thiolactomycin]
Target β-ketoacyl-ACP synthase, ref [21]
  MIC: 92.5 µM (≈ 19.5 µg/mL)

## Cyclomarin A
Target ClpC1, ref [22],[23]
  MIC: 0.3 to 2.5 µM

## Ecumicin
Target ClpC1, ref [17]
  MIC: 0.13 to 0.3 µM

## Ilamycins
Target not given, ref [25]
  MIC: 0.0098 µM

## Lassomycin
Target ClpC1, ref [15],[16]
  MIC: 0.42 to 1.57 µM

## Teixobactin
Target lipid II, ref [24]
  MIC: 0.125 µM
